Active and inactive are the calls of the source. The rule behind the calls is not given here. Positions of bridges follow the written chain, without caps; N, C: chain ends. Non-standard residues stand in square brackets, D forms with d. Residues, ends and D or L forms follow the SMILES beside them. Orn = NCCC[C@H](N)C(=O)O
How the values were obtained:
RAW264.7 [1] = assay: Antiinflammatory activity in LPS-induced mouse RAW264.7 cells assessed as […] in IL-1beta expression at 1 microg/ml preincubated with compound for 24 hrs followed by LPS addition for 6 hrs by ELISA method; type: functional, cell-based; conditions: dose 1.0 µg/ml, time 30.0 hrs
RAW264.7 [2] = assay: Antiinflammatory activity in LPS-induced mouse RAW264.7 cells assessed as inhibition of TNF-alpha expression at 1 microg/ml preincubated with compound for 24 hrs followed by LPS addition for 6 hrs by ELISA method; type: functional, cell-based; conditions: dose 1.0 µg/ml, time 30.0 hrs
[3] = Cytotoxicity against mouse RAW264.7 cells assessed as cell viability at 1 microg/ml measured after 24 hrs by CCK-8 assay; type: toxicity, cell-based; conditions: at 1 µg/mL, read-out: Activity
RAW264.7 [4] = assay: Antiinflammatory activity in LPS-induced mouse RAW264.7 cells assessed as inhibition of IL-1beta expression at 1 microg/ml preincubated with compound for 24 hrs followed by LPS addition for 6 hrs by ELISA method; type: functional, cell-based; conditions: dose 1.0 µg/ml, time 30.0 hrs
RAW264.7 [5] = assay: Antiinflammatory activity in LPS-induced mouse RAW264.7 cells assessed as inhibition of NO expression at 1 microg/ml preincubated with compound for 24 hrs followed by LPS addition for 6 hrs by DAF-FM diacetate probe based analysis; type: functional, cell-based; conditions: dose 1.0 µg/ml, time 30.0 hrs
RAW264.7 [6] = assay: Antiinflammatory activity in LPS-induced mouse RAW264.7 cells assessed as inhibition of NO generation at 1 microg/ml preincubated with compound for 24 hrs followed by LPS addition for 6 hrs by DAF-FM diacetate probe based analysis; type: functional, cell-based; conditions: dose 1.0 µg/ml
Mus musculus [7] = assay: Anti-inflammatory activity against collagenase-induced osteoarthritis C57BL/6J mouse model assessed as improvement in cartilage thickness at 1 mg/kg, ip measured on day 14 by H and E staining based analysis; type: functional, organism-based; conditions: time 14.0 day
[8] = Stability in human serum measured upto 6 hrs by RP-HPLC analysis; type: ADME, cell-free
Mus musculus [9] = assay: Anti-inflammatory activity against collagenase-induced osteoarthritis C57BL/6J mouse model assessed as reduction in mankin score in articular cartilage at 1 mg/kg, ip measured on day 14; type: functional, organism-based; conditions: time 14.0 day
RAW264.7 [10] = assay: Antiinflammatory activity in LPS-induced mouse RAW264.7 cells assessed as effect on NO level at 1 microg/ml preincubated with compound for 24 hrs followed by LPS addition for 6 hrs by DAF-FM diacetate probe based analysis; type: functional, cell-based; conditions: dose 1.0 µg/ml, time 30.0 hrs
RAW264.7 [11] = assay: Antiinflammatory activity in LPS-induced mouse RAW264.7 cells assessed as effect on TNF-alpha level at 1 microg/ml preincubated with compound for 24 hrs followed by LPS addition for 6 hrs by ELISA method; type: functional, cell-based; conditions: dose 1.0 µg/ml, time 30.0 hrs
RAW264.7 [12] = assay: Antiinflammatory activity in LPS-induced mouse RAW264.7 cells assessed as effect on IL-1beta level at 1 microg/ml preincubated with compound for 24 hrs followed by LPS addition for 6 hrs by ELISA method; type: functional, cell-based; conditions: dose 1.0 µg/ml, time 30.0 hrs

SMILES | Activity (RAW264.7 [1]) | Activity (RAW264.7 [2]) | viability at 24 h, 1 microg/ml [3] | Activity (RAW264.7 [4]) | Activity (RAW264.7 [5]) | other results
COCCOCCOCCOCCOCCSC[C@@H](NC(=O)[C@@H](CCC(N)=O)NC(=O)[C@H](N)CCSC)C(=O)N[C@H](CC(N)=O)C(=O)N[C@H](CO)C(N)=O | Active | Active | ~80% | – | – | –
CSCC[C@@H](N)C(=O)N[C@H]1CC(=O)NCCCC[C@@H](C(=O)N[C@@H](CO)C(N)=O)NC(=O)[C@H](CS)NC1=O | – | – | ~80% | inactive | – | –
CSCC[C@H](N)C(=O)N[C@H](CCC(N)=O)C(=O)N[C@@H](CS)C(=O)N[C@@H](CC(N)=O)C(=O)N[C@@H](CO)C(N)=O | inactive | Active | ~80% | – | Active | –
CSCC[C@H](N)C(=O)N[C@@H](CCC(N)=O)C(=O)N[C@@H](CS)C(=O)N[C@H](CC(N)=O)C(=O)N[C@@H](CO)C(N)=O | inactive | Active | ~80% | – | Active | –
CSCC[C@H](N)C(=O)N[C@@H](CCC(N)=O)C(=O)N[C@@H](CS)C(=O)N[C@@H](CC(N)=O)C(=O)N[C@@H](CO)C(N)=O | – | Active | 82.2% | Active | – | Activity (RAW264.7 [6]): Active; Activity (Mus musculus [7]): Active; Stability [8]: Stable; Activity (Mus musculus [9]): Active
CSCC[C@@H](N)C(=O)N[C@H]1CC(=O)NCCC[C@@H](C(=O)N[C@@H](CO)C(N)=O)NC(=O)[C@H](CS)NC1=O | – | – | ~80% | inactive | – | –
COCCOCCOCCSC[C@@H](NC(=O)[C@@H](CCC(N)=O)NC(=O)[C@H](N)CCSC)C(=O)N[C@H](CC(N)=O)C(=O)N[C@H](CO)C(N)=O | Active | Active | ~80% | – | – | –
COCCOCCOCCOCCOCCOCCOCCSC[C@@H](NC(=O)[C@@H](CCC(N)=O)NC(=O)[C@H](N)CCSC)C(=O)N[C@H](CC(N)=O)C(=O)N[C@H](CO)C(N)=O | Active | Active | 88.8% | – | – | Activity (RAW264.7 [6]): Active; Activity (Mus musculus [7]): Active
CSCC[C@@H](N)C(=O)N[C@@H](CCC(N)=O)C(=O)N[C@@H](CS)C(=O)N[C@@H](CC(N)=O)C(=O)N[C@@H](CO)C(N)=O | – | Active | 86.8% | Active | Active | Activity (Mus musculus [7]): Active
CSCC[C@H](N)C(=O)N[C@@H](CCC(N)=O)C(=O)N[C@@H](CS)C(=O)N[C@@H](CC(N)=O)C(=O)N[C@H](CO)C(N)=O | inactive | Active | ~80% | – | Active | –
CSCC[C@H](N)C(=O)N[C@@H](CCC(N)=O)C(=O)N[C@H](CS)C(=O)N[C@@H](CC(N)=O)C(=O)N[C@@H](CO)C(N)=O | – | Active | ~80% | Active | Active | –
CSCC[C@H](NC(C)=O)C(=O)N[C@@H](CCC(N)=O)C(=O)N[C@@H](CS)C(=O)N[C@@H](CC(N)=O)C(=O)N[C@@H](CO)C(N)=O (Ac-MQCNS-NH2) | – | – | ~80% | Active | – | Activity (RAW264.7 [10]): Active; Activity (RAW264.7 [11]): Active; Activity (RAW264.7 [12]): Active
CSCC[C@H](N)C(=O)N[C@H]1CCC(=O)NCCCC[C@@H](C(=O)N[C@@H](CO)C(N)=O)NC(=O)[C@H](CS)NC1=O (H-MECKS-NH2; lactam 2-4) | – | – | ~80% | inactive | – | –
CSCC[C@H](N)C(=O)N[C@H]1CCC(=O)NCCC[C@@H](C(=O)N[C@@H](CO)C(N)=O)NC(=O)[C@H](CS)NC1=O (H-MEC[Orn]S-NH2; lactam 2-4) | – | – | ~80% | inactive | – | –
